Measured values: patent US9643980B2, “Benzoxazepin oxazolidinone compounds and methods of use” (Genentech, Inc., priority 2015, dated 2017)
Where two headings read alike, the source gives them in different places.

Legend:
P-PRAS40 SW48(H1047R) = experiment: Inhibition of P-PRAS40 in SW48 isogenic cells, PI3Kα mutant H1047R; type: cell-based; settings: for EC50: Homo sapiens, SW48, 24 hours of compound treatment, read-out: P-PRAS40 SW48(H1047R) EC50; for Fold Selectivity for SW48(H1047R) vs. SW48(parental): EC50 potency ratio
Method: (§1) All statistics were performed using KaleidaGraph Software (version 4.1.3). A Student t-Test was performed using unpaired data with equal variance to compare activity against mutant cells and wild-type cells. P<0.05 is considered to be significant.
(§2) The following assays are intended for determining the cellular potency and mutant selectivity of small molecule PI3Kα inhibitors. […] Mutant selectivity of PI3Kα inhibitors is determined by EC50 potency ratios in the WT vs. E545K cell lines and WT vs. H1047R cell lines.
(§3) The three cell lines (WT, E545K, and H1047R) are plated and assayed in parallel. The following day, test compounds are serially diluted in dimethyl sulfoxide (DMSO) and added to cells (final DMSO concentration 0.5%). […] Cell lysates are added to assay plates pre-coated with antibodies against phosphorylated PRAS40. Phosphorylated PRAS40 in samples are allowed to bind to the capture antibodies overnight at 4° C. The detection antibody (anti-total PRAS40, labeled with an electrochemiluminescent SULFO-TAG) is added to the bound lysate and incubated for 1 hour at room temperature. The MSD Read Buffer is added such that when a voltage is applied to the plate electrodes, the labels bound to the electrode surface emit light. The MSD Sector Instrument measures the intensity of the light, and quantitatively measures the amount of phosphor-PRAS40 in the sample. Percent inhibition of PRAS40 phosphorylation by varying concentrations of test compounds is calculated relative to untreated controls. EC50 values are calculated using the 4 parameter logistic nonlinear regression dose-response model.

P-PRAS40 SW48(E545K) = experiment: Inhibition of P-PRAS40 in SW48 isogenic cells, PI3Kα mutant E545K; type: cell-based; settings: for EC50: Homo sapiens, SW48, 24 hours of compound treatment, read-out: P-PRAS40 SW48(E545K) EC50; for Fold Selectivity for SW48(E545K) vs. SW48(parental): EC50 potency ratio
Method: as §1, §2, §3

PI3Kδ = PI3Kδ (Homo sapiens, UniProt O00329); experiment: PI3K binding assay (lipid kinase reaction, ADP-Glo), PI3K delta; type: biochemical
Method: (§4) Reactions are carried out using the following conditions for each PI3K isoform as in Table 5.
(§5) All reactions are carried out at room temperature. […] The reaction is started by the addition of 2 μL ATP/MgCl2. The kinase reaction buffer contains 50 mM HEPES, 50 mM NaCl 3 mM MgCl2, 0.01% BSA, 1% DMSO, and enzyme and substrate concentrations as indicated in the above table. The reaction is stopped by the addition of 10 μL ADP-Glo reagent. Plates are read in a Perkin Elmer Envision system using luminescence mode. 10 point dose response curves are generated for each test compound. Ki values for each compound are determined using the Morrison Equation.

PI3Kα = PI3Kα (Homo sapiens, UniProt P42336); experiment: PI3K binding assay (lipid kinase reaction, ADP-Glo), PI3K alpha; type: biochemical; settings: for Ki: read-out: PI3Kα Ki
Method: as §4, §5

P-PRAS40 SW48(parental) = experiment: Inhibition of P-PRAS40 in SW48 isogenic cells, PI3Kα wild-type (parental); settings: Homo sapiens, SW48, 24 h
Method: The three cell lines (WT, E545K, and H1047R) are plated and assayed in parallel. The following day, test compounds are serially diluted in dimethyl sulfoxide (DMSO) and added to cells (final DMSO concentration 0.5%). Cells are then incubated for 24 hours at 37° C. and 5% CO2. […] Cell lysates are added to assay plates pre-coated with antibodies against phosphorylated PRAS40. Phosphorylated PRAS40 in samples are allowed to bind to the capture antibodies overnight at 4° C. The detection antibody (anti-total PRAS40, labeled with an electrochemiluminescent SULFO-TAG) is added to the bound lysate and incubated for 1 hour at room temperature. The MSD Read Buffer is added such that when a voltage is applied to the plate electrodes, the labels bound to the electrode surface emit light. The MSD Sector Instrument measures the intensity of the light, and quantitatively measures the amount of phosphor-PRAS40 in the sample. Percent inhibition of PRAS40 phosphorylation by varying concentrations of test compounds is calculated relative to untreated controls. EC50 values are calculated using the 4 parameter logistic nonlinear regression dose-response model.

PI3Kβ = PI3Kβ (Homo sapiens, UniProt P42338); experiment: PI3K binding assay (lipid kinase reaction, ADP-Glo), PI3K beta; type: biochemical; settings: Table 2A; first value of cell (ADP-Glo, Example 901)
Method: as §4, §5

PI3Kγ = PI3Kγ (Homo sapiens, UniProt P48736); experiment: PI3K binding assay (lipid kinase reaction, ADP-Glo), PI3K gamma; type: biochemical; settings: Table 2A; first value of cell (ADP-Glo, Example 901)
Method: as §4, §5

[1] = Table 2B comparator compounds, first value of cell (ADP-Glo)
[2] = Table 3A, p value (Student t-Test) given
[3] = Table 2A, first value of cell (ADP-Glo, Example 901)
[4] = Table 2A, selectivity ratio (fold)
[5] = read-out: P-PRAS40 SW48(parental) EC50 (nM)

Chain of PI3Kγ (P48736 whole entry): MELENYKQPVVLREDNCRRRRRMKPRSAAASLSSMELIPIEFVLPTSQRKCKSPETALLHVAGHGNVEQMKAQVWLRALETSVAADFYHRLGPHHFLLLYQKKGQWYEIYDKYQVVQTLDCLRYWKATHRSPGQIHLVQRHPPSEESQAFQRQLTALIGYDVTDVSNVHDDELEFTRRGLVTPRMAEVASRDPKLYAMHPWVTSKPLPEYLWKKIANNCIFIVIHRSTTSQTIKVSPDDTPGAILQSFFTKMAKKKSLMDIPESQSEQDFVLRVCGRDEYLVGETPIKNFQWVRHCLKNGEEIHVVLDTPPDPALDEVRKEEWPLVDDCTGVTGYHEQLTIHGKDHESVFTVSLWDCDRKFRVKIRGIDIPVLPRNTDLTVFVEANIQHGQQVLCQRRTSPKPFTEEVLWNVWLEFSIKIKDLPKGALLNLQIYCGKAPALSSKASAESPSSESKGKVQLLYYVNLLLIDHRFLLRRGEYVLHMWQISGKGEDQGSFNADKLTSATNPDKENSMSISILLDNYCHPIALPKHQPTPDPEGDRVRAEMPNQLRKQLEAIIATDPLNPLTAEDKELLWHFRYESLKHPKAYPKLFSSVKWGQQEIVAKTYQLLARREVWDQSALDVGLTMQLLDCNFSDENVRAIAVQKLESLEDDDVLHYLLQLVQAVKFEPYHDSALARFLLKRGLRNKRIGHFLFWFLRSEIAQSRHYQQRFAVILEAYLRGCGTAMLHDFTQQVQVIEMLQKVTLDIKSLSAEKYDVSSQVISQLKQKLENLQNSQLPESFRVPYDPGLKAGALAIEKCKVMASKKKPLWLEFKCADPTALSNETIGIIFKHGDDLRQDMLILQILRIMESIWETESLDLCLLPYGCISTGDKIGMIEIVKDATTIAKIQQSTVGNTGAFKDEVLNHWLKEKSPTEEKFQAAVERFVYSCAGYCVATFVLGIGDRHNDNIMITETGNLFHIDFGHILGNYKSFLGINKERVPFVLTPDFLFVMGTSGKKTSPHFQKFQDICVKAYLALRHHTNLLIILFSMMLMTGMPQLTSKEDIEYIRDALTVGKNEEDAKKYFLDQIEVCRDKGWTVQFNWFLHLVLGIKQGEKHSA
Chain of PI3Kδ (O00329 whole entry, canonical isoform): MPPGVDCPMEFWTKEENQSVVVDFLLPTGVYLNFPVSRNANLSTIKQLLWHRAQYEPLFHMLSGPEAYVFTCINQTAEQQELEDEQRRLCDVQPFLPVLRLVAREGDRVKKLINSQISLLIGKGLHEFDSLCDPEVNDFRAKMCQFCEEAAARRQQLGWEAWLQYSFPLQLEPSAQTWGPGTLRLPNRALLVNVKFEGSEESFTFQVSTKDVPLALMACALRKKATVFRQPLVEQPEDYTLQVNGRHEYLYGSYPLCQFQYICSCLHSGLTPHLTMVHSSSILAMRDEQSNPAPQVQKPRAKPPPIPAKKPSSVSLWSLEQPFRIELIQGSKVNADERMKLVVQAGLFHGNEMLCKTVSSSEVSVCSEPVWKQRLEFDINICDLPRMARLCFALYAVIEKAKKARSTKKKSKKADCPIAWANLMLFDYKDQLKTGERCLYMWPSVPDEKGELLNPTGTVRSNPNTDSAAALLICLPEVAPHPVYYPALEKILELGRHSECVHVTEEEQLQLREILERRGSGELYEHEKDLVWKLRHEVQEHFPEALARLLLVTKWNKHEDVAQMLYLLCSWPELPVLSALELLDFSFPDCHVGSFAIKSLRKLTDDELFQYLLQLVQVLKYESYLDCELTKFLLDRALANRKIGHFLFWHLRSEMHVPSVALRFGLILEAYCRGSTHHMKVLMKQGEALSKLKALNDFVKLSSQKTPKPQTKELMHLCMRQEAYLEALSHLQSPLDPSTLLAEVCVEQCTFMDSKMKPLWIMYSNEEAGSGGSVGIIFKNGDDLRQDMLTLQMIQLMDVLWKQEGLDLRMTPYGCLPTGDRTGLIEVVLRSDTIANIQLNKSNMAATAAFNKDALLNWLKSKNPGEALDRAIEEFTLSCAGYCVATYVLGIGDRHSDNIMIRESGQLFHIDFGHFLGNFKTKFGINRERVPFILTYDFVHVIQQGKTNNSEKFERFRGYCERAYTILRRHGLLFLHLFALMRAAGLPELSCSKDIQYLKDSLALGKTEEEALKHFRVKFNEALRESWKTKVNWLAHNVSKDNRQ
Chain of PI3Kδ (P27986 whole entry partner, canonical isoform): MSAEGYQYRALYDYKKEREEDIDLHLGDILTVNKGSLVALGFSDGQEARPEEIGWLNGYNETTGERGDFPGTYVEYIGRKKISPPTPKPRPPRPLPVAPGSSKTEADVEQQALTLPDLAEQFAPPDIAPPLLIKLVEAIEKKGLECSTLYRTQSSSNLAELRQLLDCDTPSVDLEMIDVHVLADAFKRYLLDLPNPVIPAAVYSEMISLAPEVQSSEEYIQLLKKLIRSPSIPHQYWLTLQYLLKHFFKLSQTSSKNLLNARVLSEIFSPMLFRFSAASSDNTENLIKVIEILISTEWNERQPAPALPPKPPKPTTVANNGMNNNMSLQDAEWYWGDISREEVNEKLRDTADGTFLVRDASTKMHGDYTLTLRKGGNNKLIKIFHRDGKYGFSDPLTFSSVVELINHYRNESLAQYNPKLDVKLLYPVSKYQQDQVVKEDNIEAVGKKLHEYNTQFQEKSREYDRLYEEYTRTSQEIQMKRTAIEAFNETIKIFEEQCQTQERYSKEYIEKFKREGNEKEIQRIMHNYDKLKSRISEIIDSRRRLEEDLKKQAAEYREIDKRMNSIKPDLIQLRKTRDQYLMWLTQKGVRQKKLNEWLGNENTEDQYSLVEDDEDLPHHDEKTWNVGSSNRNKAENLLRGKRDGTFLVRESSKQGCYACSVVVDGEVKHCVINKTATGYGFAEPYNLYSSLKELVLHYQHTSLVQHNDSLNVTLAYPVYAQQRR
Chain of PI3Kα (P42336 whole entry): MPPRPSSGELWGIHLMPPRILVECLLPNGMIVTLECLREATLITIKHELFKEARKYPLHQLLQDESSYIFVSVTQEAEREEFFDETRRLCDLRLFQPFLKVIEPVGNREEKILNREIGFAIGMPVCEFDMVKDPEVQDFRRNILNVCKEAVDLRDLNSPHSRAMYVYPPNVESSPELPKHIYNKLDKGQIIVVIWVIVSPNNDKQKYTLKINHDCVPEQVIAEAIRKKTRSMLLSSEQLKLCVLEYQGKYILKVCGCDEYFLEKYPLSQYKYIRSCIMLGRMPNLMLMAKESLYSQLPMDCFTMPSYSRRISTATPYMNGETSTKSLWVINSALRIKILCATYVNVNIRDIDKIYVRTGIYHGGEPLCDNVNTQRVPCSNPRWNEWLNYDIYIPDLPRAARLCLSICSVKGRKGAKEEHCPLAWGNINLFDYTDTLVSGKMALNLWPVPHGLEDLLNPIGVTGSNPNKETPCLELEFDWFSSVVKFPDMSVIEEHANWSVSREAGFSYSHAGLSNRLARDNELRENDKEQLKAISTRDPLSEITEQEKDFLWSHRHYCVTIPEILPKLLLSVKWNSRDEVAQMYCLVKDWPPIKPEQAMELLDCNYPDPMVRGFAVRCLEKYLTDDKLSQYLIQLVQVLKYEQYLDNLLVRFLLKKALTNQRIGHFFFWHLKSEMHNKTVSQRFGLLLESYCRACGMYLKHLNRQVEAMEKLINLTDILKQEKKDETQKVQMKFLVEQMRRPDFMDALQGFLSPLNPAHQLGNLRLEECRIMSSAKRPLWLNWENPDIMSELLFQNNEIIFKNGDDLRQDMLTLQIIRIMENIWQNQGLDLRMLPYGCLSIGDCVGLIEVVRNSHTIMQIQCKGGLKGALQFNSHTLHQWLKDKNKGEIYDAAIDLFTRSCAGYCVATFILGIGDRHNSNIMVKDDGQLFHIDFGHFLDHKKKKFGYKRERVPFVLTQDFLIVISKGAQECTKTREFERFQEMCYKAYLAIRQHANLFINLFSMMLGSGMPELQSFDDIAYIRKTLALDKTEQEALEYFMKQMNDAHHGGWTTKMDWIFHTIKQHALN
Chain of PI3Kα (P27986 whole entry partner): as the sequence (P27986 whole entry partner, canonical isoform) above
Chain of PI3Kβ (P42338 whole entry): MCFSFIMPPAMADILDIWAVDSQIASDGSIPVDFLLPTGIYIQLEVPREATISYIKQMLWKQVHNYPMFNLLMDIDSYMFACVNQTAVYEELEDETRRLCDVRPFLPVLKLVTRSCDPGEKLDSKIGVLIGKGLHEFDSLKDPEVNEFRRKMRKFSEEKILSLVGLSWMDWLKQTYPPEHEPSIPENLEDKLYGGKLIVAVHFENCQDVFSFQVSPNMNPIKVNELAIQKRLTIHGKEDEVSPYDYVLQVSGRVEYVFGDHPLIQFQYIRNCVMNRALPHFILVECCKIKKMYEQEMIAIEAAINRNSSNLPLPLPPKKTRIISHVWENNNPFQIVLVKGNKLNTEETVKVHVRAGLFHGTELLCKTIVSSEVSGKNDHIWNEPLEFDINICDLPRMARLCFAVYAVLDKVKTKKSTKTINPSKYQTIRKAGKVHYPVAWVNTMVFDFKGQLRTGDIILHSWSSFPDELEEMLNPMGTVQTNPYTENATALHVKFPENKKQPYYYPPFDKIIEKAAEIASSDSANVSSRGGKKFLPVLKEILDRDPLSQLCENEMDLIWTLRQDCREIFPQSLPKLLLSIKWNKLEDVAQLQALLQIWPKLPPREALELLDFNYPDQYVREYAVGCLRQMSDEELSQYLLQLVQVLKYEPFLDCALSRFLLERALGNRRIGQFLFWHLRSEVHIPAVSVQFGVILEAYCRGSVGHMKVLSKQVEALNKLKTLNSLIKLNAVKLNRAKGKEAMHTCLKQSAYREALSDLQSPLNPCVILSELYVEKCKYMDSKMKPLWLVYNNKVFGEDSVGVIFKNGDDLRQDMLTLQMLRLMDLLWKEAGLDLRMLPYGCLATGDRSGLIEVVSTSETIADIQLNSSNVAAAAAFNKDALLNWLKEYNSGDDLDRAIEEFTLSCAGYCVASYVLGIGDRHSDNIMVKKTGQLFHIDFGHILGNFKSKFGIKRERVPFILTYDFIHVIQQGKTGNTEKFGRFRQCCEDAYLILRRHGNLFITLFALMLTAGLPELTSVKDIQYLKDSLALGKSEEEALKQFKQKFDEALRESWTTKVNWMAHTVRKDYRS
Chain of PI3Kβ (P27986 whole entry partner): as the sequence (P27986 whole entry partner, canonical isoform) above

SMILES | Selectivity for PI3Kα vs. PI3Kδ (PI3Kα) | Ki (PI3Kβ) [nM] | EC50 (P-PRAS40 SW48(H1047R); Table 3A, geometric mean) [nM] | Fold Selectivity for SW48(H1047R) vs. SW48(parental) (P-PRAS40 SW48(H1047R); [2]) | Ki (PI3Kγ) [nM] | EC50 (P-PRAS40 SW48(E545K); Table 3A, geometric mean) [nM] | Fold Selectivity for SW48(E545K) vs. SW48(parental) (P-PRAS40 SW48(E545K); [2]) | Ki (PI3Kδ; [3]) [nM] | Ki (PI3Kα; [3]) [nM] | Selectivity for PI3Kα vs. PI3K-β (PI3Kα; [4]) | Selectivity for PI3Kα vs. PI3Kγ (PI3Kα; [4]) | Selectivity for PI3Kα vs. PI3Kδ (PI3Kα; [4]) | EC50 (P-PRAS40 SW48(parental); [5]) [µM] | further results
CC(C)(O)Cn1cc(-c2ccc3c(c2)OCCc2sc(N4C(=O)OCC4(C)C)nc2-3)cn1 [356 (U.S. Pat. No. 8,263,633), reference compound] | 1 | – | – | – | – | – | – | – | – | – | – | – | – | EC50 (P-PRAS40 SW48(H1047R); Table 3B comparator compounds): 79.5 nM; Fold Selectivity for SW48(H1047R) vs. SW48(parental) (P-PRAS40 SW48(H1047R); Table 3B): 3.9 (p < 0.001); EC50 (P-PRAS40 SW48(E545K); Table 3B comparator compounds): 76.8 nM; Fold Selectivity for SW48(E545K) vs. SW48(parental) (P-PRAS40 SW48(E545K); Table 3B): 4.0 (p < 0.001); Ki (PI3Kδ; [1]): 0.92 nM; Ki (PI3Kα; [1]): 0.967 nM; EC50 (P-PRAS40 SW48(parental); read-out: P-PRAS40 SW48(parental) EC50 (μM)): 0.31 µM
CC(C)[C@@H]1COC(=O)N1c1cn2c(n1)-c1ccc(O[C@@H](C)C(N)=O)cc1OCC2 [Compound 101, (S)-2-((2-((R)-4-isopropyl-2-oxooxazolidin-3-yl)-5,6-dihydrobenzo[f]imidazo[1,2-d][1,4]oxazepin-9-yl)oxy)propanamide] | – | 392 | 32.2 | 2.1 (p < 0.001) | 72.8 | 32.8 | 2.1 (p < 0.001) | 18.7 | 0.803 | 488 | 91 | 23 | 0.0682 | –
CC[C@@H]1COC(=O)N1c1cn2c(n1)-c1ccc(O[C@@H](C)C(N)=O)cc1OCC2 [Compound 104, (S)-2-((2-((R)-4-Ethyl-2-oxooxazolidin-3-yl)-5,6-dihydrobenzo[f]imidazo[1,2-d][1,4]oxazepin-9-yl)oxy)propanamide] | 19 | 847 | 109 | 2.6 (p = 0.003) | 287 | 115 | 2.5 (p = 0.003) | 50 | 2.69 | – | – | – | 0.335 | Selectivity for PI3Kα vs. PI3K-β (PI3Kα): 315; Selectivity for PI3Kα vs. PI3Kγ (PI3Kα): 107
NC(=O)[C@@H]1CCCN1c1ccc2c(c1)OCCn1cc(N3C(=O)OC[C@H]3C(F)F)nc1-2 [Compound 106, (S)-1-(2-((S)-4-(Difluoromethyl)-2-oxooxazolidin-3-yl)-5,6-dihydrobenzo[f]imidazo[1,2-d][1,4]oxazepin-9-yl)pyrrolidine-2-carboxamide] | – | 53.8 | 2.9 | 1.9 (p < 0.001) | 20.4 | 2.7 | 2.1 (p < 0.001) | 1.82 | 0.053 | 1008 | 384 | 34 | 0.0055 | –
C[C@H](Oc1ccc2c(c1)OCCn1cc(N3C(=O)OC[C@H]3C(F)F)nc1-2)C(N)=O [Compound 107, (S)-2-((2-((S)-4-(Difluoromethyl)-2-oxooxazolidin-3-yl)-5,6-dihydrobenzo[f]imidazo[1,2-d][1,4]oxazepin-9-yl)oxy)propanamide] | – | 341 | 25.6 | 2.7 (p < 0.001) | 136 | 23.4 | 3.0 (p < 0.001) | 44.2 | 0.853 | 400 | 159 | 52 | 0.0692 | –
NC(=O)[C@@H]1CCCN1c1ccc2c(c1)OCCn1cc(N3C(=O)OC[C@H]3CF)nc1-2 [Compound 108, (S)-1-(2-((S)-4-(Fluoromethyl)-2-oxooxazolidin-3-yl)-5,6-dihydrobenzo[f]imidazo[1,2-d][1,4]oxazepin-9-yl)pyrrolidine-2-carboxamide] | – | 60.8 | 2.6 | 2.2 (p < 0.001) | 23.9 | 2.9 | 2.1 (p < 0.001)) | 1.97 | 0.043 | 1421 | 557 | 46 | 0.0062 | –
